In patent publication US9328070B2, “Ethynyl derivatives” (Hoffmann-La Roche Inc., priority 2012, dated 2016):

Tests used:
human mGlu5a receptor [1] = target: T1, human mGlu5a receptor (Homo sapiens (Human), UniProt P41594); assay: Intracellular Ca2+ mobilization assay (mGlu5 PAM assay); assay type: cell-based; conditions: for Activity profile: PAM = positive allosteric modulator, NAM = negative allosteric modulator; for EC50 (nM) mGlu5 PAM assay / mGlu5 PAM EC50 [nM]: HEK-293 cells, human mGlu5a, glutamate at EC20; for Efficacy [%]: maximal response in % of the maximal stimulatory effect of saturating L-glutamate
T1 sequence (P41594 other isoform, or with tags, fused parts or gaps): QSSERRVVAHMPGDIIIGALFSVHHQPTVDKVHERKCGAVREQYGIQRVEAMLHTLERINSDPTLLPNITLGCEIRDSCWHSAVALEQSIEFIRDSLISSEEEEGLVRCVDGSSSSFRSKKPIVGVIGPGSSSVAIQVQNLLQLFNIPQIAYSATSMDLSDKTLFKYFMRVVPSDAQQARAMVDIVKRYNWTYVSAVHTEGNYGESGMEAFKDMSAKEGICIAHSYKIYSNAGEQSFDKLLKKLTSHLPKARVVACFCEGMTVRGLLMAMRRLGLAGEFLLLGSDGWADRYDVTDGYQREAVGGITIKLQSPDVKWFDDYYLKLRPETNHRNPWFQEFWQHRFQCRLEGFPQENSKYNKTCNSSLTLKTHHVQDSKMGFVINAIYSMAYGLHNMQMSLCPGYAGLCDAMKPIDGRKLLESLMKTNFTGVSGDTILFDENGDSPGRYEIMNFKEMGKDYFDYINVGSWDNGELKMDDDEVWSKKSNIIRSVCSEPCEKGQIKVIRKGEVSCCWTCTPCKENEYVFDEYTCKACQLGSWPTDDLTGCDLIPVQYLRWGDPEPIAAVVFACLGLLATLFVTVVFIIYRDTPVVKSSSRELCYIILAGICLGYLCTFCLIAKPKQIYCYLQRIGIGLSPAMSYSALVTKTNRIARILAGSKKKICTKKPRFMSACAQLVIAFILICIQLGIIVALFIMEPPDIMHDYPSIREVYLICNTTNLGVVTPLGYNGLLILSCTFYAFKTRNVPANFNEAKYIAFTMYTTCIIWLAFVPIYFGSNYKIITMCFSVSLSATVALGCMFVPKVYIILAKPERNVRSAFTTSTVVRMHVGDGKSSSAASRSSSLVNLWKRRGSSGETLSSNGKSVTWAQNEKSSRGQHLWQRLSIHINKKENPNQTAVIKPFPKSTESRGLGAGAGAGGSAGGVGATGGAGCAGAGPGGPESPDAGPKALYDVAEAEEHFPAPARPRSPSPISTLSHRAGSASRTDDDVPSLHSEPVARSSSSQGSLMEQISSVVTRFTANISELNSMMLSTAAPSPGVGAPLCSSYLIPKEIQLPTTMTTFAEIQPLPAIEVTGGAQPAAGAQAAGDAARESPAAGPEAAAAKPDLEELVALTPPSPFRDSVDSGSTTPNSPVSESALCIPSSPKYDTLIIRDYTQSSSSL
Procedure: A monoclonal HEK-293 cell line stably transfected with a cDNA encoding for the human mGlu5a receptor was generated; for the work with mGlu5 Positive Allosteric Modulators (PAMs), a cell line with low receptor expression levels and low constitutive receptor activity was selected to allow the differentiation of agonistic versus PAM activity. Cells were cultured according to standard protocols (Freshney, 2000) in Dulbecco's Modified Eagle Medium with high glucose supplemented with 1 mM glutamine, 10% (vol/vol) heat-inactivated bovine calf serum, Penicillin/Streptomycin, 50 μg/ml hygromycin and 15 μg/ml blasticidin (all cell culture reagents and antibiotics from Invitrogen, Basel, Switzerland).
About 24 hrs before an experiment, 5×10^4 cells/well were seeded in poly-D-lysine coated, black/clear-bottomed 96-well plates. The cells were loaded with 2.5 μM Fluo-4AM in loading buffer (1×HBSS, 20 mM HEPES) for 1 hr at 37° C. and washed five times with loading buffer. The cells were transferred into a Functional Drug Screening System 7000 (Hamamatsu, Paris, France), and 11 half logarithmic serial dilutions of test compound at 37° C. were added and the cells were incubated for 10-30 min. with on-line recording of fluorescence. Following this pre-incubation step, the agonist L-glutamate was added to the cells at a concentration corresponding to EC20 (typically around 80 μM) with on-line recording of fluorescence; in order to account for day-to-day variations in the responsiveness of cells, the EC20 of glutamate was determined immediately ahead of each experiment by recording of a full dose-response curve of glutamate.
Responses were measured as peak increase in fluorescence minus basal (i.e. fluorescence without addition of L-glutamate), normalized to the maximal stimulatory effect obtained with saturating concentrations of L-glutamate. Graphs were plotted with the % maximal stimulatory using XLfit, a curve fitting program that iteratively plots the data using Levenburg Marquardt algorithm. The single site competition analysis equation used was y=A+((B−A)/(1+((x/C)D))), where y is the % maximal stimulatory effect, A is the minimum y, B is the maximum y, C is the EC50, x is the log 10 of the concentration of the competing compound and D is the slope of the curve (the Hill Coefficient). From these curves the EC50 (concentration at which half maximal stimulation was achieved), the Hill coefficient as well as the maximal response in % of the maximal stimulatory effect obtained with saturating concentrations of L-glutamate were calculated.
A depression of the signal observed after addition of the EC20 concentration of L-glutamate was indicative of an inhibitory activity of the test compound.

human mGlu5a receptor [2] = target: T1, human mGlu5a receptor; assay: MPEP binding assay ([3H]MPEP displacement); conditions: [3H]MPEP 2 nM, 1 h at 4° C., EBNA cell membranes
Procedure: For binding experiments, cDNA encoding human mGlu 5a receptor was transiently transfected into EBNA cells using a procedure described by Schlaeger and Christensen [Cytotechnology 15:1-13 (1998)]. Cell membrane homogenates were stored at −80° C. until the day of assay where upon they were thawed and resuspended and polytronised in 15 mM Tris-HCl, 120 mM NaCl, 100 mM KCl, 25 mM CaCl2, 25 mM MgCl2 binding buffer at pH 7.4 to a final assay concentration of 20 μg protein/well.
Saturation isotherms were determined by addition of twelve [^3H]MPEP concentrations (0.04-100 nM) to these membranes (in a total volume of 200 μl) for 1 h at 4° C. Competition experiments were performed with a fixed concentration of [^3H]MPEP (2 nM) and IC50 values of test compounds evaluated using 11 concentrations (0.3-10,000 nM). Incubations were performed for 1 h at 4° C.
At the end of the incubation, membranes were filtered onto unifilter (96-well white microplate with bonded GF/C filter preincubated 1 h in 0.1% PEI in wash buffer, Packard BioScience, Meriden, Conn.) with a Filtermate 96 harvester (Packard BioScience) and washed 3 times with cold 50 mM Tris-HCl, pH 7.4 buffer. Nonspecific binding was measured in the presence of 10 μM MPEP. The radioactivity on the filter was counted (3 min) on a Packard Top-count microplate scintillation counter with quenching correction after addition of 45 μl of microscint 40 (Canberra Packard S.A., Zurich, Switzerland) and shaking for 20 min.

Row | SMILES | Activity profile (human mGlu5a receptor [1]) | Ki (human mGlu5a receptor [2]) [nM] | Efficacy [%] (human mGlu5a receptor [1]) | further results
1 | CN(C(=O)c1ccc(C#Cc2cccc(F)c2)cn1)C(C)(C)C [Reference compound 1, reference compound] | PAM | 29 |  | 
2 | CC(C)(NC(=O)c1ccc(C#Cc2ccnc(Cl)c2)cn1)C(F)(F)F [Reference compound 3, reference compound] | PAM | 58 |  | 
3 | CN(C(=O)c1ccc(C#Cc2cccc(Cl)c2)cn1)C(C)(C)C [drawing 7] |  |  |  | mGlu5 PAM EC50 [nM] (human mGlu5a receptor [1]): inactive
4 | CN(C(=O)c1ccc(C#Cc2ccnc(Cl)c2)cn1)C(C)(C)C [Example 1, 5-(2-Chloro-pyridin-4-ylethynyl)-pyridine-2-carboxylic acid tert-butyl-methyl-amide] | NAM | 28 |  | EC50 (nM) mGlu5 PAM assay (human mGlu5a receptor [1]): inactive
5 | CN(C(=O)c1ccc(C#Cc2cccc(F)c2)cn1)C(C)(C)C [drawing 3] |  |  | 64 | 
6 | CC(C)(NC(=O)c1ccc(C#Cc2ccnc(Cl)c2)cn1)C(F)(F)F [drawing 5] |  |  | 80 | 
7 | CN(C(=O)c1ccc(C#Cc2ccnc(Cl)c2)cn1)C(C)(C)C [drawing 6] |  |  |  | mGlu5 PAM EC50 [nM] (human mGlu5a receptor [1]): Inactive

Further lines, with some results ahead:

Row | Activity profile (human mGlu5a receptor [1]) | Ki (human mGlu5a receptor [2]) [nM] | Efficacy [%] (human mGlu5a receptor [1]) | SMILES | further results
8 | NAM | 15 |  | CN(C(=O)c1ccc(C#Cc2cccc(Cl)c2)cn1)C(C)(C)C [Example 2, 5-(3-Chloro-phenylethynyl)-pyridine-2-carboxylic acid tert-butyl-methyl-amide] | EC50 (nM) mGlu5 PAM assay (human mGlu5a receptor [1]): inactive
9 | PAM | 42 |  | CN(C(=O)c1ccc(C#Cc2cncc(Cl)c2)cn1)C(C)(C)C [Reference compound 2, reference compound] | 
10 |  |  | 33 | CN(C(=O)c1ccc(C#Cc2cncc(Cl)c2)cn1)C(C)(C)C [drawing 4] | 
